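Compound exposure: 48 hours, 5 concentrations, 96-well plates. The concentration for full growth arrest is given as TGI.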
Legend:
Experiment in all cases: growth of human tumour cells (NCI), 48 h
[1] = test system: RPMI-8226 leukemia
[2] = test system: OVCAR-5 ovarian
[3] = test system: SNB-19 CNS
[4] = test system: OVCAR-4 ovarian
[5] = test system: SF-268 CNS
[6] = test system: LOX IMVI melanoma
[7] = test system: HL-60(TB) leukemia
[8] = test system: HCT-116 colon

CN1CCN(c2nc(N)c(Br)c(Cl)n2)CC1
TGI [1]: > 100 µM | TGI [2]: > 100 µM | TGI [3]: > 100 µM | TGI [4]: > 100 µM | TGI [5]: > 100 µM | TGI [6]: > 100 µM | TGI [7]: > 100 µM

CCOC(=O)C1C(=O)CC(=O)C2CCCCC21 (stereo not drawn)
TGI [1]: > 100 µM | TGI [2]: > 100 µM | TGI [3]: > 100 µM | TGI [4]: > 100 µM | TGI [5]: > 100 µM | TGI [8]: > 100 µM | TGI [6]: > 100 µM | TGI [7]: > 100 µM

CC(=O)OCC1OC(n2c(=S)n(-c3ccccc3)c(=O)c3cc(Br)ccc32)C(OC(C)=O)C1OC(C)=O (stereo not drawn)
TGI [1]: > 100 µM | TGI [2]: > 100 µM | TGI [3]: > 100 µM | TGI [4]: > 100 µM | TGI [5]: > 100 µM | TGI [8]: > 100 µM | TGI [6]: > 100 µM

CCCCOC(=O)NC(=O)c1cn(CCCOC(=O)CCCCCCCCC(=O)OCCCn2cc(C(=O)NC(=O)OCCCC)c(=O)n(C)c2=O)c(=O)n(C)c1=O
TGI [1]: > 100 µM | TGI [2]: > 100 µM | TGI [3]: > 100 µM | TGI [4]: > 100 µM | TGI [5]: > 100 µM | TGI [8]: > 100 µM | TGI [7]: > 100 µM

CC12CCc3ccccc3C1=NNC(=O)C2 (stereo not drawn)
TGI [1]: > 100 µM | TGI [2]: > 100 µM | TGI [3]: > 100 µM | TGI [4]: > 100 µM | TGI [5]: > 100 µM | TGI [8]: > 100 µM | TGI [6]: > 100 µM | TGI [7]: > 100 µM

COc1cc(O)c(C(=O)/C=C/c2ccc(OC)c(OCc3ccccc3)c2)c(OC)c1
TGI [1]: > 100 µM | TGI [2]: > 100 µM | TGI [3]: > 100 µM | TGI [4]: > 100 µM | TGI [8]: > 100 µM | TGI [6]: > 100 µM | TGI [7]: > 100 µM

N#CC(/C(CCCC(=O)Nc1cccc([N+](=O)[O-])c1)=N\NC(=O)c1c(O)ccc2ccccc12)c1nc2ccccc2s1 (stereo not drawn)
TGI [2]: > 100 µM | TGI [3]: > 100 µM | TGI [4]: > 100 µM | TGI [5]: > 100 µM | TGI [8]: > 100 µM | TGI [7]: 24.1 µM

O=C(CCc1ccccc1)CC1OC(=O)C(Cl)=C1Cl (stereo not drawn)
TGI [1]: > 100 µM | TGI [2]: 35 µM | TGI [3]: 38 µM | TGI [4]: > 100 µM | TGI [5]: 79.9 µM | TGI [8]: 28 µM | TGI [6]: 40.2 µM

CC(=O)C1C(=O)C(=O)N(CCN2C(=O)C(=O)C(C(C)=O)C2=O)C1=O (stereo not drawn)
TGI [1]: > 100 µM | TGI [2]: > 100 µM | TGI [3]: > 100 µM | TGI [4]: > 100 µM | TGI [5]: > 100 µM | TGI [8]: > 100 µM | TGI [6]: > 100 µM

CN(C)N=Nc1ccc(S(N)(=O)=O)cc1
TGI [1]: > 100 µM | TGI [2]: > 100 µM | TGI [3]: > 100 µM | TGI [4]: > 100 µM | TGI [5]: > 100 µM | TGI [8]: > 100 µM | TGI [6]: > 100 µM

Cc1ccc(S(=O)(=O)C2CC2(Cl)Cl)cc1 (stereo not drawn)
TGI [2]: > 100 µM | TGI [3]: > 100 µM | TGI [4]: 13.8 µM | TGI [5]: > 100 µM | TGI [8]: 44.7 µM | TGI [6]: 35.6 µM

Cc1ccc(S(=O)(=O)NNS(C)(=O)=O)cc1
TGI [1]: > 100 µM | TGI [3]: > 100 µM | TGI [4]: > 100 µM | TGI [5]: > 100 µM | TGI [8]: > 100 µM | TGI [6]: > 100 µM

CC(=O)Nc1ccc(/C=c2\sc3nnc(-c4cccnc4)n3c2=O)cc1
TGI [2]: 67.1 µM | TGI [3]: 77.2 µM | TGI [4]: 30.7 µM | TGI [5]: 60 µM | TGI [8]: 28.9 µM | TGI [6]: 30.7 µM | TGI [7]: 42.9 µM

O=C1[C@@H]2C(c3ccccc3[N+](=O)[O-])=NO[C@@H]2C(=O)N1c1ccc(Cc2ccc(N3C(=O)[C@H]4C(c5ccccc5[N+](=O)[O-])=NO[C@H]4C3=O)cc2)cc1
TGI [1]: > 100 µM | TGI [2]: > 100 µM | TGI [3]: > 100 µM | TGI [4]: > 100 µM | TGI [5]: > 100 µM | TGI [8]: > 100 µM | TGI [6]: > 100 µM

Cc1[nH]c2cc([N+](=O)[O-])ccc2c1[N+](=O)[O-]
TGI [1]: 58.4 µM | TGI [2]: 79 µM | TGI [3]: 56.5 µM | TGI [4]: 92 µM | TGI [5]: > 100 µM | TGI [6]: 76.2 µM | TGI [7]: 55.1 µM

O=C(N/C(=C\c1ccc(/C=C(\NC(=O)c2ccccc2)c2nc3c(O)nc(S)nc3[nH]2)cc1)c1nc2c(O)nc(S)nc2[nH]1)c1ccccc1
TGI [1]: > 100 µM | TGI [2]: > 100 µM | TGI [3]: > 100 µM | TGI [4]: > 100 µM | TGI [5]: > 100 µM | TGI [8]: > 100 µM | TGI [6]: > 100 µM

COc1ccc2c(c1)[n+]([O-])c(-c1ccccc1Cl)c(N)[n+]2[O-]
TGI [1]: > 100 µM | TGI [2]: > 100 µM | TGI [3]: > 100 µM | TGI [4]: > 100 µM | TGI [5]: > 100 µM | TGI [8]: > 100 µM | TGI [7]: > 100 µM

COC1/C(=C\C(C)=O)c2ccccc2N1C(C)=O (stereo not drawn)
TGI [1]: > 100 µM | TGI [3]: > 100 µM | TGI [4]: > 100 µM | TGI [8]: > 100 µM | TGI [7]: > 100 µM

CCN(CC)C(=S)SS(C)(=O)=O
TGI [2]: 42.2 µM | TGI [3]: 58.4 µM | TGI [4]: 34.7 µM | TGI [8]: 43.1 µM | TGI [6]: 26.5 µM | TGI [7]: 26.6 µM

CCN(CC)c1c(C)nnn1C1OC(COC(C)=O)C(OC(C)=O)C(OC(C)=O)C1OC(C)=O (stereo not drawn)
TGI [1]: 78.3 µM | TGI [2]: > 100 µM | TGI [3]: > 100 µM | TGI [4]: > 100 µM | TGI [5]: > 100 µM | TGI [8]: > 100 µM | TGI [7]: > 100 µM

CCN(CC)c1ccc(C2N3CCCCC3[C@@H]3c4[nH]c5ccccc5c4CCN23)cc1 (stereo partly drawn)
TGI [1]: > 100 µM | TGI [2]: > 100 µM | TGI [3]: > 100 µM | TGI [4]: > 100 µM | TGI [5]: 69 µM | TGI [8]: 33.9 µM | TGI [7]: 30.8 µM
